Consider 51 compounds from patent publication US8242118B2, “Arylsulfonamide derivatives for use as CCR3 antagonists in the treatment of inflammatory and immunological disorders” (Axikin Pharmaceuticals Inc., priority 2001, dated 2012).

Structures are written as SMILES.

The target of one series is T1, Human CCR3 (Homo sapiens, UniProt P51677).
T1 construct: The cloned CCR3 cDNA was constructed with pcDNA3 vector and transfected into a IC562 cell line; expressed in transfected cells
T1 sequence (P51677 1-355): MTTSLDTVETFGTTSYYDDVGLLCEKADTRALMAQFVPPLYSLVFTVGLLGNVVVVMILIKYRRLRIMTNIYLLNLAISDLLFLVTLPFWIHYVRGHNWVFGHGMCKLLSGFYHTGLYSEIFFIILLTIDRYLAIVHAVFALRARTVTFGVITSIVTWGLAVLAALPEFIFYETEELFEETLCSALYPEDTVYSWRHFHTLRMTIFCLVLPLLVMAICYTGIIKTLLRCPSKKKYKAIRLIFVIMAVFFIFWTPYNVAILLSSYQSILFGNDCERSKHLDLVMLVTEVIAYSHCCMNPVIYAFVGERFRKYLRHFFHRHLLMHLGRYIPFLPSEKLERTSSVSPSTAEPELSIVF
Put plainly: Receptor binding assay (RBA), [125I]-eotaxin. The note with it: human CCR3-transformed K562 cells, 0.1 nM [125I]-eotaxin; compounds of about 40 to 90% purity; read-out: Activity grade RBA (IC50 class). The gist of the method:
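Butyrate-pretreated (5 mM, 20-24 h) CCR3-transfected K562 cells incubated 1 h at room temperature with compound and 0.1 nM final [125I]-eotaxin in HEPES pH 7.6 buffer; bound radioactivity counted after filtration. Non-specific binding with 500 nM unlabeled eotaxin; IC50 from inhibition curve.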

Take `N#Cc1ccc(Oc2cc(Cl)cc(Cl)c2)c(S(=O)(=O)N2C[C@H]3C[C@@H]2CN3)c1` [Example 13-4]: the melting point was in the range of 311 to 312 °C. Also, on Human CCR3, the half-inhibitory concentration (IC50) was under 1000 nM.

For `O=[N+]([O-])c1ccc(Sc2cc(Cl)cc(Cl)c2)c(S(=O)(=O)N2CCC(N3CCCC3)CC2)c1` [Example 2-22], the melting point worked out at 213 °C. In addition, the IC50 on Human CCR3 is under 1000 nM. The like results for `COCCCN1CCN(S(=O)(=O)c2cc([N+](=O)[O-])ccc2Oc2cc(Cl)cc(Cl)c2)CC1` [Example 4-36] were, in that order, 145 °C and under 1000 nM. Take `Cc1cc(C)cc(Oc2cc(C)c(N)cc2S(=O)(=O)N2CCNCC2)c1.Cl.Cl` [Example 5-7]: the melting point is 183 °C. The IC50 on Human CCR3 is over 10000 nM. As for `Cc1cc(C)cc(Oc2ccc(NC(=O)c3cccs3)cc2S(=O)(=O)N2CCNCC2)c1` [Example 7-9], at Human CCR3, the IC50 was over 10000 nM. For `CC(=O)Nc1ccc(Oc2cc(C)cc(C)c2)c(S(=O)(=O)N2CCNCC2)c1` [Example 7-2], the IC50 at Human CCR3 is over 10000 nM. In the case of `Cc1cccc(Nc2ccc([N+](=O)[O-])cc2S(=O)(=O)N2CCNCC2)c1` [Example 3-4], the IC50 at Human CCR3 lay within 1000 to 10000 nM. On to `CC1CCCCN1CCCNS(=O)(=O)c1cc([N+](=O)[O-])ccc1Sc1cc(Cl)cc(Cl)c1` (stereo not shown) [Example 2-13], for which the IC50 at Human CCR3 was under 1000 nM.

`CCN1CCN(S(=O)(=O)c2cc(I)ccc2Oc2cc(C)cc(C)c2)CC1` [Example 5-5] gave a melting point of 133 to 134 °C. For the same compound, the IC50 at Human CCR3 was under 1000 nM. For `Cc1cc(C)cc(Oc2ccc([N+](=O)[O-])cc2S(=O)(=O)N(C)CCN(C)C)c1` [Example 4-14], the melting point fell in the range of 75 to 77 °C. The IC50 on Human CCR3 is under 1000 nM. The like results for `Cc1ccc(N2CCN(S(=O)(=O)c3cc([N+](=O)[O-])ccc3Oc3cc(C)cc(C)c3)CC2)cc1` [Example 4-8] were, in that order, 168 to 170 °C and over 10000 nM. Take `Cc1cc(C)cc(Oc2ccc(NC(=O)C(C)(C)C)cc2S(=O)(=O)N2CCNCC2)c1` [Example 7-3]: the IC50 at Human CCR3 is over 10000 nM. Turning to `N#Cc1ccc(Oc2cc(Cl)cc(Cl)c2)c(S(=O)(=O)N2C[C@@H]3CCCN[C@@H]3C2)c1` [Example 13-5], the melting point was in the range of 163 to 165 °C. For the same compound, on Human CCR3, the IC50 was in the range of 1000 to 10000 nM. Consider `Cc1cc(C)cc(Oc2ccc(NC(=O)CC(C)C)cc2S(=O)(=O)N2CCNCC2)c1` [Example 7-4], for which the IC50 at Human CCR3 was over 10000 nM. `Cc1cc(C)cc(Oc2ccc([N+](=O)[O-])cc2S(=O)(=O)N2CCC(N(C)C)CC2)c1.Cl` [Example 4-24]: the melting point fell in the range of 262 to 264 °C. Besides, the IC50 at Human CCR3 is under 1000 nM. The like results for `CCC(CC)N1CCN(S(=O)(=O)c2cc([N+](=O)[O-])ccc2Oc2cc(C)cc(C)c2)CC1` [Example 4-18] were, in that order, 131 to 132 °C and under 1000 nM. `CCN1CCC(N(CC)S(=O)(=O)c2cc([N+](=O)[O-])ccc2Oc2cc(C)cc(C)c2)C1` (stereo not shown) [Example 4-12] displayed a melting point of 86 to 88 °C. Also, the 50% inhibitory concentration (IC50) on Human CCR3 is under 1000 nM. In the case of `CCN1CCN(S(=O)(=O)c2cc([N+](=O)[O-])ccc2Oc2cc(C)cc(C)c2)CC1` [Example 4-5], the melting point lay in the range of 111 to 112 °C. For the same compound, the IC50 on Human CCR3 was under 1000 nM. Turning to `CN1CCC(N(C)S(=O)(=O)c2cc([N+](=O)[O-])ccc2Oc2cc(Cl)cc(Cl)c2)C1` (stereo not shown) [Example 4-23], the IC50 on Human CCR3 is under 1000 nM. On the same count and under the same terms, then `Cc1cc(C)cc(Oc2ccc([N+](=O)[O-])cc2S(=O)(=O)NCCN2CCOCC2)c1` [Example 4-3], with 1000 to 10000 nM. The compound `O=[N+]([O-])c1ccc(Oc2cc(Cl)cc(Cl)c2)c(S(=O)(=O)N2CCN(CC3CCCO3)CC2)c1` (stereo not shown) [Example 4-27] returned a melting point of 182 to 183 °C. The IC50 at Human CCR3 was under 1000 nM. The like results for `Cc1cc(C)cc(Oc2ccc(F)cc2S(=O)(=O)N2CCNCC2)c1` [Example 6-3] were, in that order, 116 to 118 °C and under 1000 nM. Compound `Cc1cc(C)cc(Oc2ccc([N+](=O)[O-])cc2S(=O)(=O)N2CCN(C(C)C)CC2)c1` [Example 4-15] gave a melting point of 129 to 131 °C. For the same compound, at Human CCR3, the IC50 was under 1000 nM. Consider `Cc1ccc(C(=O)Nc2ccc(Oc3cc(C)cc(C)c3)c(S(=O)(=O)N3CCNCC3)c2)cc1` [Example 7-6], for which the IC50 on Human CCR3 is over 10000 nM.

As for `CCN(CC)C1CCN(S(=O)(=O)c2cc([N+](=O)[O-])ccc2Oc2cc(Cl)cc(Cl)c2)C1` (stereo not shown) [Example 4-21], the melting point was 120 to 121 °C. In addition, the IC50 at Human CCR3 is under 1000 nM. Regarding `Cc1cc(C)cc(Oc2ccc(NC(=O)CCc3ccccc3)cc2S(=O)(=O)N2CCNCC2)c1` [Example 7-8], the IC50 on Human CCR3 is over 10000 nM. Consider `Cc1cc(C)cc(Oc2ccc([N+](=O)[O-])cc2S(=O)(=O)N2CCN(c3ccccc3)CC2)c1` [Example 4-7], for which the melting point was in the range of 168 to 169 °C. Further, the IC50 on Human CCR3 is over 10000 nM. `O=[N+]([O-])c1ccc(Oc2cc(Cl)cc(Cl)c2)c(S(=O)(=O)N2CCC[C@H]2CN2CCCC2)c1` [Example 4-22]: the melting point was in the range of 200 to 202 °C. Further, at Human CCR3, the IC50 was under 1000 nM. The corresponding values for `N#Cc1ccc(Oc2cc(Cl)cc(Cl)c2)c(S(=O)(=O)N2CCCC3CN(Cc4ccccc4)CC32)c1` (stereo not shown) [Example 13-2] are 90 to 93 °C and 1000 to 10000 nM. Compound `Cc1cc(C)cc(Oc2ccc([N+](=O)[O-])cc2S(=O)(=O)N2CCN(C3CCCC3)CC2)c1` [Example 4-19] yielded a melting point of 169 to 171 °C. Also, at Human CCR3, the half-inhibitory concentration (IC50) was under 1000 nM. As to `O=[N+]([O-])c1ccc(Sc2cc(Cl)cc(Cl)c2)c(S(=O)(=O)NCCN2CCCCC2)c1` [Example 2-24], the IC50 at Human CCR3 was under 1000 nM. In the case of `O=[N+]([O-])c1ccc(Oc2cc(Cl)cc(Cl)c2)c(S(=O)(=O)N2CCC(N3CCCC3)C2)c1` (stereo not shown) [Example 4-38], the IC50 at Human CCR3 was under 1000 nM. Compound `Cc1cc(C)cc(Oc2ccc([N+](=O)[O-])cc2S(=O)(=O)N2CCN(C)CC2)c1` [Example 4-4] gave a melting point of 131 to 132 °C. Besides, on Human CCR3, the IC50 is under 1000 nM. Take `N[C@H]1CCN(S(=O)(=O)c2cc([N+](=O)[O-])ccc2Sc2cc(Cl)cc(Cl)c2)C1` [Example 2-12]: the melting point was 263 °C. Moreover, the IC50 at Human CCR3 was under 1000 nM.

As for `O=[N+]([O-])c1ccc(Sc2cc(Cl)cc(Cl)c2)c(S(=O)(=O)N2CCC(N3CCCCC3)CC2)c1` [Example 2-3], the melting point fell in the range of 191 to 192 °C. The IC50 on Human CCR3 was under 1000 nM. For `Cc1cc(C)cc(Oc2ccc([N+](=O)[O-])cc2S(=O)(=O)N2CCN(C3CCCCC3)CC2)c1` [Example 4-6], the melting point was 190 to 192 °C. Also, the IC50 on Human CCR3 was under 1000 nM. For the compound `Cc1cc(C)cc(Oc2ccc([N+](=O)[O-])cc2S(=O)(=O)NCCN2CCCCC2)c1` [Example 4-2], at Human CCR3, the IC50 was under 1000 nM. For the compound `Cc1cc(C)cc(Oc2ccc(I)cc2S(=O)(=O)N2CCNCC2)c1.Cl` [Example 5-6], the melting point lay in the range of 241 to 243 °C. For the same compound, the IC50 at Human CCR3 is under 1000 nM. The like results for `Cl.N[C@@H]1CCN(S(=O)(=O)c2cc([N+](=O)[O-])ccc2Sc2cc(Cl)cc(Cl)c2)C1` [Example 2-11] were, in that order, 270 °C and under 1000 nM. Turning to `Cc1cc(C)cc(Oc2ccc(NC(=O)c3cccc4ccccc34)cc2S(=O)(=O)N2CCNCC2)c1` [Example 7-7], the IC50 on Human CCR3 was over 10000 nM. Regarding `O=[N+]([O-])c1ccc(Oc2cc(Cl)cc(Cl)c2)c(S(=O)(=O)N2CCC(N3CCCCC3)CC2)c1` [Example 4-29], the melting point is 173 to 174 °C. Further, the IC50 at Human CCR3 was under 1000 nM. In the case of `Cc1ccccc1Nc1ccc([N+](=O)[O-])cc1S(=O)(=O)N1CCNCC1` [Example 3-3], the IC50 at Human CCR3 was 1000 to 10000 nM. `O=[N+]([O-])c1ccc(Oc2cc(Cl)cc(Cl)c2)c(S(=O)(=O)N2CCN(CCC(F)(F)F)CC2)c1` [Example 4-34] had a melting point of 166 to 167 °C. The IC50 at Human CCR3 is under 1000 nM.

With `O=[N+]([O-])c1ccc(Nc2ccccc2Cl)c(S(=O)(=O)N2CCNCC2)c1` [Example 3-6], the IC50 on Human CCR3 is over 10000 nM. `CCCC(C)N1CCN(S(=O)(=O)c2cc([N+](=O)[O-])ccc2Oc2cc(C)cc(C)c2)CC1` (stereo not shown) [Example 4-17]: the melting point lay within 93 to 95 °C. For the same compound, on Human CCR3, the IC50 was under 1000 nM.

As for `COCCCN1CCN(S(=O)(=O)c2cc(C#N)ccc2Oc2cc(Cl)cc(Cl)c2)CC1` [Example 13-7], the melting point was 240 °C. The IC50 on Human CCR3 was under 1000 nM. The corresponding values for `Cc1cc(C)cc(Oc2ccc(N)cc2S(=O)(=O)N2CCNCC2)c1.O=C(O)C(F)(F)F` [Example 5-3] are 133 to 135 °C and over 10000 nM.

Turning to `Cc1cc(C)cc(Oc2ccc([N+](=O)[O-])cc2S(=O)(=O)N2CCN(CCC(F)(F)F)CC2)c1` [Example 4-33], the IC50 at Human CCR3 was under 1000 nM.

`Cc1cc(C)cc(Oc2ccc(NC(=O)c3ccccc3)cc2S(=O)(=O)N2CCNCC2)c1` [Example 7-5]: the IC50 at Human CCR3 is over 10000 nM. Still for that read-out and setting: then `Cc1ccc(Nc2ccc([N+](=O)[O-])cc2S(=O)(=O)N2CCNCC2)cc1` [Example 3-5], with over 10000 nM; and `O=[N+]([O-])c1ccc(Nc2cc(Cl)cc(Cl)c2)c(S(=O)(=O)N2CCNCC2)c1` [Example 3-2], with under 1000 nM.

For orientation: IC50 means the concentration at which inhibition is half-maximal. As a reminder, the melting point is the temperature, or range, at which the solid turns liquid.
